Reference: article PMC10208570, “Peptidomimetic antibiotics disrupt the lipopolysaccharide transport bridge of drug-resistant Enterobacteriaceae” (Science Advances, 2023)
In brackets after ≈: the same amount, converted by molar mass. Where a SMILES comes first, the peptide text is derived from it. Bridges are numbered along the chain shown (N, C = ends). [ ]: non-standard residue; d: D form. Hyp = O=C(O)[C@@H]1C[C@@H](O)CN1; Pen = CC(C)(S)[C@H](N)C(=O)O; dDab = NCC[C@@H](N)C(=O)O; Dab = NCC[C@H](N)C(=O)O

How the values were obtained:
Plasma protein binding [1] = type: in vitro ADME, mouse; details: mouse, plasma, pH 7.5
Method: (§1) After ultrafiltration, protein binding was determined by subtracting the percentage of compound in ultrafiltrate from the total amount of compound in spiked plasma (table S4A).

[2] = tested on: K. pneumoniae ATCC 43816 (parent / WT); assay: microbe, parasite or virus in culture; details: ATCC 43816
Method: (§2) MIC assays [Clinical and Laboratory Standards Institute (CLSI) methodology] and serial passage studies were performed as described by Luther et al. ([6]). […] Resistant mutants were isolated, and their MIC values were determined and sent to Microbes NG (Birmingham, United Kingdom) for whole-genome sequencing and bioinformatic analysis.

[3] = tested on: E. coli ATCC 25922 (parent / WT); assay: microbe, parasite or virus in culture; details: for MIC E. coli ATCC 25922 Parent: CLSI method, parent strain
Method: as §2

[4] = tested on: E. coli ATCC 25922 LptA Q62L mutant; assay: microbe, parasite or virus in culture; details: CLSI method; clone harboring LptA Q62L
Method: as §2

[5] = tested on: K. pneumoniae NCTC 13443 (NDM-1) (parent / WT); assay: microbe, parasite or virus in culture; details: CLSI method; parent strain
Method: as §2

[6] = tested on: K. pneumoniae NCTC 13443 (NDM-1) LptA Q62L mutant; assay: microbe, parasite or virus in culture; details: for MIC K. pneumoniae NCTC 13443 (NDM-1) Q62L mutant: CLSI method, clone harboring LptA Q62L
Method: as §2

human red blood cells = assay: Haemolysis; type: cell-based; details: PBS-washed human red blood cells; 1 h at 200 mg/liter, 37°C; OD 540 nm; versus 100% lysis control 2.5% Triton X-100; biological replicates
Method: To test their hemolytic potential, compounds were incubated in the presence of phosphate-buffered saline (PBS)–washed human red blood cells. After 1-hour incubation at 200 mg/liter and 37°C, the samples were centrifuged (3220g), the supernatants were diluted in Dulbecco’s PBS, and optical density at 540 nm was determined. The hemolysis induced by the compound was calculated versus a 100% lysis control prepared with 2.5% Triton X-100 (table S4A).

in vitro = type: cell-based; details: human
Method: The cytotoxicity of compounds was determined by determining the number of viable cells using the Sigma Cell Counting Kit-8 (WST-8). HeLa cells were incubated at 37°C and 5% CO2 for 24 hours, after which the medium was replaced with fresh medium containing dilutions of compounds. […]

Plasma protein binding [7] = type: in vitro ADME, human; details: human, plasma, pH 7.5
Method: as §1

LptAmQ62L = molecular target: T1, LptAmQ62L (Escherichia coli, UniProt P0ADV1, Q62L); assay: biochemical; type: binding, E. coli
T1 construct: His6-GB1 (N, cleaved yes); made in house; host or cells: E. coli BL21 (DE3)
T1 sequence (P0ADV1 28-159 Q62L): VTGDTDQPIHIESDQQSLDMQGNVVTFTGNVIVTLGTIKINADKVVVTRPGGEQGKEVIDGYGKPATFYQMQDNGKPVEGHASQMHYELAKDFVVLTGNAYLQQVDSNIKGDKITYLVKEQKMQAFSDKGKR
Method: (§3) Protein stocks were purified and concentrated in buffer 1 [50 mM Na-Pi (pH 7) and 150 mM NaCl] and, if necessary, diluted to desired concentrations using buffer 2 [50 mM Na-Pi (pH 7), 150 mM NaCl, and 0.05% Tween 20]. Peptide stocks and fluorescently labeled peptide stocks were made in buffer 2. Every serial dilution consisted of 24 wells, the first well with the highest concentrate and the last well (well 24) with the lowest. First, 50 μl of buffer 2 was added to the wells 2 to 24 of each serial dilution. Then, 100 μl of concentrated unlabeled peptide/protein in their respective buffers was added to the first well. Fifty microliters were taken from the first well and added to the second well for a 1:1 serial dilution and continued for the 24 wells. […] Plates were covered with adhesive seals and left to incubate overnight at 4°C before FP measurements the next day. Anisotropy was measured using the Tecan Safire2 plate reader using a 10-nm bandwidth and setting the excitation and emission wavelengths to 635 and 670 nm, respectively. The G-factor (G) was also determined empirically as 1.094 for the instrument and included in all the anisotropy calculations.
(§4) For the indirect binding assays, r was calculated in the same manner as the direct binding assays. […] The control was subtracted from r to yield r′. Data were fit to a sigmoidal interpolation model on GraphPad Prism 9, and an IC50 was generated for each unlabeled peptide or protein measured.

LptAm = molecular target: T2, LptAm (Escherichia coli, UniProt P0ADV1); assay: biochemical; type: binding, E. coli
T2 construct: His6-GB1 (N, cleaved yes); made in house; host or cells: E. coli BL21 (DE3)
T2 sequence (P0ADV1 28-159): as the sequence (P0ADV1 28-159 Q62L) above, with L35Q counted along it
Method: as §3, §4

[8] = tested on: Escherichia coli ATCC 25922 LptA E84D mutant; assay: microbe, parasite or virus in culture; details: Table S9 panel
Method: as §2

[9] = tested on: Klebsiella pneumoniae ATCC 43816 PglJ, PhnJ, ThiH mutant; assay: microbe, parasite or virus in culture; details: Table S9 panel; other mutation
Method: as §2

[10] = tested on: K. pneumoniae ATCC 43816 LptA Q62L mutant; assay: microbe, parasite or virus in culture; details: Table S9 panel
Method: as §2

[11] = tested on: Klebsiella pneumoniae ATCC 43816 LptA I36S mutant; assay: microbe, parasite or virus in culture; details: Table S9 panel
Method: as §2

[12] = tested on: Klebsiella pneumoniae ATCC 43816 LptA I36N mutant; assay: microbe, parasite or virus in culture; details: Table S9 panel
Method: as §2

[13] = tested on: Klebsiella pneumoniae NCTC 13443 LpxC, LpxD mutant; assay: microbe, parasite or virus in culture; details: Table S9 panel; other mutation
Method: as §2

[14] = tested on: Escherichia coli ATCC 25922 KdsD mutant; assay: microbe, parasite or virus in culture; details: Table S9 panel; other mutation
Method: as §2

[15] = tested on: Klebsiella pneumoniae NCTC 13443 YejM mutant; assay: microbe, parasite or virus in culture; details: Table S9 panel; other mutation
Method: as §2

[16] = tested on: Klebsiella pneumoniae NCTC 13443 LptA I36S mutant; assay: microbe, parasite or virus in culture; details: Table S9 panel
Method: as §2

[17] = tested on: Klebsiella pneumoniae ATCC 43816 LptA L116Q mutant; assay: microbe, parasite or virus in culture; details: Table S9 panel
Method: as §2

[18] = tested on: Klebsiella pneumoniae ATCC 43816 LapB mutant; assay: microbe, parasite or virus in culture; details: Table S9 panel; other mutation
Method: as §2

## CC[C@H](C)[C@H](NC(=O)[C@@H](NC(=O)[C@@H]1C[C@@H](O)CN1C(=O)[C@@H](N)C(C)C)[C@@H](C)CC)C(=O)N[C@@H](Cc1ccc(O)cc1)C(=O)N[C@@H]1C(=O)N[C@@H](CC(N)=O)C(=O)N[C@@H](CCCNC(=N)N)C(=O)N[C@@H](CCN)C(=O)N[C@@H]([C@@H](C)O)C(=O)N[C@H](CCN)C(=O)N[C@@H](CCCCN)C(=O)N[C@H](C(=O)N[C@@H](CCN)C(=O)N[C@@H](CCCNC(=N)N)C(=O)N[C@@H](Cc2ccc(O)cc2)C(=O)O)CSSC1(C)C [Compound 4] (H-V[Hyp]IIY[Pen]NR[Dab]T[dDab]KC[Dab]RY-OH; disulfide 6-13)
Plasma protein binding [1]
  fraction unbound at 30 min, 10 mg/liter: 0.14
[2]
  MIC K. pneumoniae ATCC 43816 Parent: 0.25 micrograms per milliliter
[3]
  MIC E. coli ATCC 25922 Parent: 0.063 micrograms per milliliter
[4]
  MIC E. coli ATCC 25922 Q62L mutant: 0.25 micrograms per milliliter
[5]
  MIC K. pneumoniae NCTC 13443 (NDM-1) Parent: 1 micrograms per milliliter
[6]
  MIC K. pneumoniae NCTC 13443 (NDM-1) Q62L mutant: 4 micrograms per milliliter
Human red blood cells
  Haemolysis % at 0.2 g/L: 0%
In vitro
  IC50 at 48 h: 536 µM
Plasma protein binding [7]
  fraction unbound at 30 min, 10 mg/liter: 0.09

## CC[C@H](C)[C@H](NC(=O)[C@@H](NC(=O)[C@@H]1C[C@@H](O)CN1C(=O)[C@@H](N)C(C)C)[C@@H](C)CC)C(=O)N[C@@H](Cc1ccc(O)cc1)C(=O)N[C@@H]1C(=O)N[C@@H](CC(N)=O)C(=O)N[C@@H](CCCNC(=N)N)C(=O)N[C@@H](CCN)C(=O)N[C@@H]([C@@H](C)O)C(=O)N[C@H](CCN)C(=O)N[C@@H](CCCCN)C(=O)N[C@H](C(=O)N[C@@H](CCN)C(=O)N[C@@H](CCN)C(=O)N[C@@H](Cc2ccc(O)cc2)C(=O)O)CSSC1(C)C [Compound 5] (H-V[Hyp]IIY[Pen]NR[Dab]T[dDab]KC[Dab][Dab]Y-OH; disulfide 6-13)
LptAmQ62L
  IC50: 0.0139 ± 0.0023 µM
  Ki: 0.0094 ± 0.0015 µM
LptAm
  IC50: 0.0186 ± 0.0011 µM
  Ki: 0.0031 ± 0.0002 µM
Plasma protein binding [1]
  fraction unbound at 30 min, 10 mg/liter: 0.13
[8]
  MIC Escherichia coli ATCC 25922 LptA E84D (1x): 1 µg/mL (≈ 0.522 µM)
[9]
  MIC Klebsiella pneumoniae ATCC 43816 PglJ, PhnJ, ThiH (1x): 0.5 µg/mL (≈ 0.261 µM)
[2]
  MIC K. pneumoniae ATCC 43816 Parent: 0.25 micrograms per milliliter
[10]
  MIC Klebsiella pneumoniae ATCC 43816 LptA Q62L (4x): 4 µg/mL (≈ 2.09 µM)
[3]
  MIC E. coli ATCC 25922 Parent: 0.063 micrograms per milliliter
[3]; Table S9 panel, WT
  MIC Escherichia coli ATCC 25922 WT: 0.125 µg/mL (≈ 0.0653 µM)
[4]
  MIC E. coli ATCC 25922 Q62L mutant: 0.25 micrograms per milliliter
[11]
  MIC Klebsiella pneumoniae ATCC 43816 LptA I36S (1x): 1 µg/mL (≈ 0.522 µM)
[12]
  MIC Klebsiella pneumoniae ATCC 43816 LptA I36N (1x): 1 µg/mL (≈ 0.522 µM)
[13]
  MIC Klebsiella pneumoniae NCTC 13443 LpxC, LpxD (1x): 0.5 µg/mL (≈ 0.261 µM)
[5]
  MIC K. pneumoniae NCTC 13443 (NDM-1) Parent: 1 micrograms per milliliter
[6]
  MIC K. pneumoniae NCTC 13443 (NDM-1) Q62L mutant: 4 micrograms per milliliter
[6]; Table S9 panel
  MIC Klebsiella pneumoniae NCTC 13443 LptA Q62L (5x): 8 µg/mL (≈ 4.18 µM)
[14]
  MIC Escherichia coli ATCC 25922 KdsD (2x): 0.5 µg/mL (≈ 0.261 µM)
[15]
  MIC Klebsiella pneumoniae NCTC 13443 YejM (1x): 2 µg/mL (≈ 1.04 µM)
[16]
  MIC Klebsiella pneumoniae NCTC 13443 LptA I36S (2x): 4 µg/mL (≈ 2.09 µM)
[17]
  MIC Klebsiella pneumoniae ATCC 43816 LptA L116Q (1x): 1 µg/mL (≈ 0.522 µM)
[18]
  MIC Klebsiella pneumoniae ATCC 43816 LapB (1x): 0.5 µg/mL (≈ 0.261 µM)
Human red blood cells
  Haemolysis % at 0.2 g/L: 0%
In vitro
  IC50 at 48 h: 1270 µM
Plasma protein binding [7]
  fraction unbound at 30 min, 10 mg/liter: 0.18
